Earlier results, collected in US10871492B2, “Methods for labeling urine in a subject with fluorophores” (UPTRU INC., priority 2015, dated 2020).

Conditions: health care applications, especially fundus angiography

Structure (SMILES): O=C([O-])c1ccccc1-c1c2ccc(=O)cc-2oc2cc([O-])ccc12.[Na+].[Na+] [Fluorescein sodium salt, fluorescein sodium salt]
- dose generally considered safe: ≤ 25 mg/kg of body weight
